Results as given in the supplement of paper PMC10307832.

How the values were obtained:
Assay in all cases: relative viability (nuclei count vs DMSO), 5 days (fraction); higher = more cells survive
NCI-H520 = test system: NCI-H520
Outline: (§1)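 Medians of duplicate plates are given as relative viability. That measure is the nuclei count in treated wells divided by the count in vehicle wells. Counts were taken on 4× images of lung cancer cell lines in 1536-well plates, 5 days after pin-tool dosing the day after seeding with one drug alone or a fixed anchor-drug dose plus five library-drug doses (not always all listed) in √10 steps.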

NCI-H838 = test system: NCI-H838
Outline: as §1

IA-LM = test system: IA-LM
Outline: as §1

Calu-6 = test system: Calu-6
Outline: as §1

A549 = test system: A549
Outline: as §1

NCI-H1299 = test system: NCI-H1299
Outline: as §1

RERF-LC-KJ = test system: RERF-LC-KJ
Outline: as §1

NCI-H650 = test system: NCI-H650
Outline: as §1

NCI-H1651 = test system: NCI-H1651
Outline: as §1

EBC-1 = test system: EBC-1
Outline: as §1

NCI-H1944 = test system: NCI-H1944
Outline: as §1

NCI-H1703 = test system: NCI-H1703
Outline: as §1

O=c1cc(-c2cccc3c2Sc2ccccc2S3)oc(N2CCOCC2)c1 + Cc1nc(NC(=O)N2CCC[C@H]2C(N)=O)sc1-c1ccnc(C(C)(C)C(F)(F)F)c1 [Alpelisib] (partner 2 µM)
relative viability (NCI-H520; first compound 0.08 µM): 0.874 | relative viability (NCI-H520; first compound 0.253 µM): 0.979 | relative viability (NCI-H520; first compound 0.8 µM): 1.09 | relative viability (NCI-H520; first compound 2.53 µM): 1.03 | relative viability (NCI-H520; first compound 8 µM): 0.971 | relative viability (NCI-H838; first compound 0.08 µM): 0.967 | relative viability (NCI-H838; first compound 0.253 µM): 1.33 | relative viability (NCI-H838; first compound 0.8 µM): 0.951 | relative viability (NCI-H838; first compound 2.53 µM): 0.903 | relative viability (NCI-H838; first compound 8 µM): 1.06 | relative viability (IA-LM; first compound 0.08 µM): 0.664 | relative viability (IA-LM; first compound 0.253 µM): 1.06 | relative viability (IA-LM; first compound 0.8 µM): 0.852 | relative viability (IA-LM; first compound 2.53 µM): 0.862 | relative viability (IA-LM; first compound 8 µM): 0.677 | relative viability (Calu-6; first compound 0.08 µM): 0.841 | relative viability (Calu-6; first compound 0.253 µM): 1.12 | relative viability (Calu-6; first compound 0.8 µM): 1 | relative viability (Calu-6; first compound 2.53 µM): 0.923 | relative viability (Calu-6; first compound 8 µM): 1.06 | relative viability (A549; first compound 0.08 µM): 0.738 | relative viability (A549; first compound 0.253 µM): 0.958 | relative viability (A549; first compound 0.8 µM): 0.857 | relative viability (A549; first compound 2.53 µM): 0.659 | relative viability (A549; first compound 8 µM): 0.653 | relative viability (NCI-H1299; first compound 0.08 µM): 1.03 | relative viability (NCI-H1299; first compound 0.253 µM): 1.09 | relative viability (NCI-H1299; first compound 0.8 µM): 1.13 | relative viability (NCI-H1299; first compound 2.53 µM): 1.03 | relative viability (NCI-H1299; first compound 8 µM): 1.08 | relative viability (RERF-LC-KJ; first compound 0.08 µM): 0.83 | relative viability (RERF-LC-KJ; first compound 0.253 µM): 0.917 | relative viability (RERF-LC-KJ; first compound 0.8 µM): 0.824 | relative viability (RERF-LC-KJ; first compound 2.53 µM): 0.741 | relative viability (RERF-LC-KJ; first compound 8 µM): 0.939 | relative viability (NCI-H650; first compound 0.08 µM): 1.1 | relative viability (NCI-H650; first compound 0.253 µM): 1.17 | relative viability (NCI-H650; first compound 0.8 µM): 1.11 | relative viability (NCI-H650; first compound 2.53 µM): 1.07 | relative viability (NCI-H650; first compound 8 µM): 1.08 | relative viability (NCI-H1651; first compound 0.08 µM): 1.02 | relative viability (NCI-H1651; first compound 0.253 µM): 1.02 | relative viability (NCI-H1651; first compound 0.8 µM): 1.08 | relative viability (NCI-H1651; first compound 2.53 µM): 0.963 | relative viability (NCI-H1651; first compound 8 µM): 1.21 | relative viability (EBC-1; first compound 0.08 µM): 0.792 | relative viability (EBC-1; first compound 0.253 µM): 1.03 | relative viability (EBC-1; first compound 0.8 µM): 0.816 | relative viability (EBC-1; first compound 2.53 µM): 0.755 | relative viability (EBC-1; first compound 8 µM): 0.522 | relative viability (NCI-H1944; first compound 0.08 µM): 0.793 | relative viability (NCI-H1944; first compound 0.253 µM): 0.939 | relative viability (NCI-H1944; first compound 0.8 µM): 0.736 | relative viability (NCI-H1944; first compound 8 µM): 0.751 | relative viability (NCI-H1703; first compound 0.253 µM): 0.459 | relative viability (NCI-H1703; first compound 0.8 µM): 0.296 | relative viability (NCI-H1703; first compound 2.53 µM): 0.245 | relative viability (NCI-H1703; first compound 8 µM): 0.295

COc1nc(C)cnc1NS(=O)(=O)c1cccnc1-c1ccc(-c2nnco2)cc1 [Zibotentan] + CS(=O)(=O)CCNCc1ccc(-c2ccc3ncnc(Nc4ccc(OCc5cccc(F)c5)c(Cl)c4)c3c2)o1 [Lapatinib] (partner 2 µM)
relative viability (NCI-H520; first compound 0.08 µM): 0.885 | relative viability (NCI-H520; first compound 0.253 µM): 0.809 | relative viability (NCI-H520; first compound 0.8 µM): 0.853 | relative viability (NCI-H520; first compound 2.53 µM): 0.927 | relative viability (NCI-H838; first compound 0.08 µM): 0.938 | relative viability (NCI-H838; first compound 0.253 µM): 0.838 | relative viability (NCI-H838; first compound 0.8 µM): 0.922 | relative viability (NCI-H838; first compound 2.53 µM): 1.06 | relative viability (IA-LM; first compound 0.08 µM): 0.68 | relative viability (IA-LM; first compound 0.253 µM): 0.808 | relative viability (IA-LM; first compound 0.8 µM): 0.9 | relative viability (IA-LM; first compound 2.53 µM): 0.847 | relative viability (Calu-6; first compound 0.08 µM): 1.02 | relative viability (Calu-6; first compound 0.253 µM): 1.06 | relative viability (Calu-6; first compound 0.8 µM): 1.16 | relative viability (Calu-6; first compound 2.53 µM): 1.14 | relative viability (A549; first compound 0.08 µM): 1.03 | relative viability (A549; first compound 0.253 µM): 1.01 | relative viability (A549; first compound 0.8 µM): 1.05 | relative viability (A549; first compound 2.53 µM): 1.12 | relative viability (NCI-H1299; first compound 0.08 µM): 0.989 | relative viability (NCI-H1299; first compound 0.253 µM): 0.906 | relative viability (NCI-H1299; first compound 0.8 µM): 0.959 | relative viability (NCI-H1299; first compound 2.53 µM): 0.928 | relative viability (RERF-LC-KJ; first compound 0.08 µM): 0.89 | relative viability (RERF-LC-KJ; first compound 0.253 µM): 0.807 | relative viability (RERF-LC-KJ; first compound 0.8 µM): 0.878 | relative viability (RERF-LC-KJ; first compound 2.53 µM): 0.845 | relative viability (NCI-H650; first compound 0.08 µM): 0.974 | relative viability (NCI-H650; first compound 0.253 µM): 0.655 | relative viability (NCI-H650; first compound 0.8 µM): 1 | relative viability (NCI-H650; first compound 2.53 µM): 0.904 | relative viability (NCI-H1651; first compound 0.08 µM): 0.935 | relative viability (NCI-H1651; first compound 0.253 µM): 0.366 | relative viability (NCI-H1651; first compound 0.8 µM): 0.747 | relative viability (NCI-H1651; first compound 2.53 µM): 0.854 | relative viability (EBC-1; first compound 0.08 µM): 0.235 | relative viability (EBC-1; first compound 0.253 µM): 0.222 | relative viability (EBC-1; first compound 0.8 µM): 0.222 | relative viability (EBC-1; first compound 2.53 µM): 0.2 | relative viability (NCI-H1944; first compound 0.08 µM): 1.06 | relative viability (NCI-H1944; first compound 0.253 µM): 0.7 | relative viability (NCI-H1944; first compound 0.8 µM): 0.747 | relative viability (NCI-H1944; first compound 2.53 µM): 0.762 | relative viability (NCI-H1703; first compound 0.08 µM): 0.968 | relative viability (NCI-H1703; first compound 0.253 µM): 0.894 | relative viability (NCI-H1703; first compound 0.8 µM): 1.24 | relative viability (NCI-H1703; first compound 2.53 µM): 0.511

COc1nc(C)cnc1NS(=O)(=O)c1cccnc1-c1ccc(-c2nnco2)cc1 [Zibotentan] + CS(=O)(=O)N1CCN(Cc2cc3nc(-c4cccc5[nH]ncc45)nc(N4CCOCC4)c3s2)CC1 [Pictilisib] (partner 1 µM)
relative viability (NCI-H520; first compound 0.08 µM): 0.336 | relative viability (NCI-H520; first compound 0.253 µM): 0.233 | relative viability (NCI-H520; first compound 0.8 µM): 0.311 | relative viability (NCI-H520; first compound 2.53 µM): 0.316 | relative viability (NCI-H838; first compound 0.08 µM): 0.451 | relative viability (NCI-H838; first compound 0.253 µM): 0.406 | relative viability (NCI-H838; first compound 0.8 µM): 0.582 | relative viability (NCI-H838; first compound 2.53 µM): 0.518 | relative viability (IA-LM; first compound 0.253 µM): 0.312 | relative viability (IA-LM; first compound 0.8 µM): 0.328 | relative viability (IA-LM; first compound 2.53 µM): 0.301 | relative viability (Calu-6; first compound 0.08 µM): 0.868 | relative viability (Calu-6; first compound 0.253 µM): 0.83 | relative viability (Calu-6; first compound 0.8 µM): 0.881 | relative viability (Calu-6; first compound 2.53 µM): 1.03 | relative viability (A549; first compound 0.08 µM): 0.478 | relative viability (A549; first compound 0.253 µM): 0.388 | relative viability (A549; first compound 0.8 µM): 0.57 | relative viability (A549; first compound 2.53 µM): 0.519 | relative viability (NCI-H1299; first compound 0.08 µM): 0.911 | relative viability (NCI-H1299; first compound 0.253 µM): 0.777 | relative viability (NCI-H1299; first compound 0.8 µM): 0.773 | relative viability (NCI-H1299; first compound 2.53 µM): 0.661 | relative viability (RERF-LC-KJ; first compound 0.08 µM): 0.484 | relative viability (RERF-LC-KJ; first compound 0.253 µM): 0.704 | relative viability (RERF-LC-KJ; first compound 0.8 µM): 0.593 | relative viability (RERF-LC-KJ; first compound 2.53 µM): 0.514 | relative viability (NCI-H650; first compound 0.08 µM): 0.921 | relative viability (NCI-H650; first compound 0.253 µM): 0.773 | relative viability (NCI-H650; first compound 0.8 µM): 0.743 | relative viability (NCI-H650; first compound 2.53 µM): 0.821 | relative viability (NCI-H1651; first compound 0.08 µM): 0.742 | relative viability (NCI-H1651; first compound 0.253 µM): 0.427 | relative viability (NCI-H1651; first compound 0.8 µM): 0.705 | relative viability (NCI-H1651; first compound 2.53 µM): 0.602 | relative viability (EBC-1; first compound 0.08 µM): 0.369 | relative viability (EBC-1; first compound 0.253 µM): 0.435 | relative viability (EBC-1; first compound 0.8 µM): 0.486 | relative viability (EBC-1; first compound 2.53 µM): 0.389 | relative viability (NCI-H1944; first compound 0.08 µM): 0.368 | relative viability (NCI-H1944; first compound 0.253 µM): 0.323 | relative viability (NCI-H1944; first compound 0.8 µM): 0.338 | relative viability (NCI-H1944; first compound 2.53 µM): 0.393 | relative viability (NCI-H1703; first compound 0.08 µM): 0.232 | relative viability (NCI-H1703; first compound 0.253 µM): 0.272 | relative viability (NCI-H1703; first compound 0.8 µM): 0.26 | relative viability (NCI-H1703; first compound 2.53 µM): 0.252
